Assay results published in US10765690B2, “TLR4 agonists and compositions thereof and their use in the treatment of cancer” (GlaxoSmithKline Intellectual Property Development Limited, priority 2015, dated 2020).

System: CT-26 cells
Test: CT-26 two-flank model, abscopal effect (study 4)
Type: in vivo, mice
Description: The in vivo anti-tumor efficacy of the TLR4 agonist (CRX-601) was assessed in the murine CT-26 colon carcinoma syngeneic solid tumor model as a monotherapy and in combination with […] a therapeutic antibody (combination data not shown). Seven to eight week old female Balb/c mice (BALB/cAnNCrl, Charles River) were used in these studies. Murine CT-26 colon carcinoma cells (ATCC catalog number CRL-2638 lot #59227052) were cultured in RPMI growth medium supplemented with 10% fetal bovine serum (FBS) in a humidified 37° C. incubator with 5% CO2, CT-26 cells cultured in logarithmic growth were harvested from tissue culture flasks and centrifuged for 5 minutes at 450×g at 4° C. for ten minutes to pellet cells. The supernatant was discarded, and cells were washed in ice cold phosphate buffered saline (PBS) without calcium and magnesium and centrifuged again for 5 minutes at 450×g at 4° C. for ten minutes to pellet cells. […] Tumor volume was calculated using the formula (0.52)×(Length)×(Width^2). In study 3, tumor-free mice were re-challenged with CT-26 tumor cells as described above, on the opposite flank from the original inoculation site and tumor growth was monitored, as described above. […]
An abscopal effect is described as distant tumor regression after a local tumor treatment. […] Tumor size was monitored for both the right and left flank tumors. […]

With `CCCCCCCCCCC[C@H](CC(=O)N[C@H]1[C@H](OC[C@H](NC(=O)C[C@@H](CCCCCCCCCCC)OCCCCCCCCCC)C(=O)O)O[C@H](CO)[C@@H](OP(=O)(O)O)[C@@H]1OC(=O)C[C@@H](CCCCCCCCCCC)OCCCCCCCCCC)OCCCCCCCCCC` [CRX-601] the “survival benefit compared to the control group” value (study 4, liposomal CRX-601 IT 25 ug/mouse, vs blank liposome + rat IgG1, p=0.011) was “significant survival benefit” and the “abscopal effect on untreated distant tumor” value (study 4 group 2, left flank tumor IT injection, liposomal 25 ug/mouse, right flank tumor untreated, mouse #4 and #6) was “distant right flank tumor regression”.
